Patent publication US20250059187A1, “COVALENTLY BINDING INHIBITORS OF G12S, G12D AND/OR G12E MUTANTS OF K-RAS GTPASE” (The Regents of the University of California, priority 2021, published 2025)

Tests used:
wild type K-Ras = target: T1, wild type K-Ras (Homo sapiens, UniProt P01116); experiment: Covalent modification of recombinant wild-type K-Ras by whole-protein mass spectrometry; assay type: binding; settings: 10 μM, 23° C., after 1 h
T1 construct: human K-Ras (wildtype, aa 1-169); 6xHis tag + TEV cleavage site (N, cleaved yes); made in house; host or cells: E. coli BL21(DE3)

K-Ras G12D [1] = target: T2, K-Ras G12D (Homo sapiens, UniProt P01116, G12D); experiment: Covalent modification of recombinant K-Ras(G12D) by whole-protein mass spectrometry; assay type: binding; settings: 10 μM, 23° C.
T2 construct: human K-Ras (G12D, aa 1-169); 6xHis tag + TEV cleavage site (N, cleaved yes); made in house; host or cells: E. coli BL21(DE3)
Description: (§1) Test compounds were prepared as 100× stock solutions in DMSO. K-Ras proteins were diluted with SEC Buffer (20 mM HEPES 7.5, 150 mM NaCl, 1 mM MgCl2) to 400 nM or 1 μM. In a typical reaction, 0.5 μL 100× compound stock was mixed with 50 μL diluted K-Ras protein, and the resulting mixture was incubated for the desired amount of time. The extent of modification was assessed by electrospray mass spectrometry using a Waters Xevo G2-XS system equipped with an Acquity UPLC BEH C4 1.7 μm column. The mobile phase was a linear gradient of 5-95% acetonitrile/water+0.05% formic acid. For kinetic measurements, a 2× compound solution was first prepared in SEC Buffer, which was then mixed with 400 nM K-Ras(G12D) protein at 1:1 (v/v) ratio. Injection time stamps were used to calculate elapsed time.

K-Ras(G13D) = target: T3, K-Ras(G13D) (Homo sapiens, UniProt P01116, G13D); experiment: Covalent modification of recombinant K-Ras(G13D) by whole-protein mass spectrometry; assay type: binding; settings: 10 μM, 23° C., after 1 h
T3 construct: human K-Ras (G13D, aa 1-169); 6xHis tag + TEV cleavage site (N, cleaved yes); made in house; host or cells: E. coli BL21(DE3)
Description: as §1

K-Ras G12E = target: T4, K-Ras G12E (Homo sapiens, UniProt P01116, G12E); experiment: Covalent modification of recombinant K-Ras(G12E) by whole-protein mass spectrometry; assay type: binding; settings: 10 μM, 23° C.
T4 construct: human K-Ras (G12E, aa 1-169); 6xHis tag + TEV cleavage site (N, cleaved yes); made in house; host or cells: E. coli BL21(DE3)
Description: as §1

K-Ras G12D [2] = target: T2, K-Ras G12D; experiment: Differential scanning fluorimetry of K-Ras(G12D) and its covalent adducts; assay type: binding
Description: The protein of interest was diluted with SEC Buffer [20 mM HEPES 7.5, 150 mM NaCl, 1 mM MgCl2] to 8 μM. This solution was dispensed into wells of a white 96-well PCR plate in triplicate (25 μL/well). Fluorescence was measured at 0.5-° C. temperature intervals every 30 s from 25° C. to 95° C. on a Bio-Rad CFX96 qPCR system using the FRET setting. Each data set was normalized to the highest fluorescence and the normalized fluorescence reading was plotted against temperature in GraphPad Prism 8.0. Tm values were determined as the temperature(s) corresponding to the maximum(ma) of the first derivative of the curve.

[3] = target: T5, interaction between Raf-RBD and K-Ras(G12D) (Homo sapiens, UniProt P01116, G12D); experiment: Time-resolved fluorescence energy transfer assay, Raf-RBD and K-Ras(G12D); assay type: biochemical; settings: dose-dependent
T5 construct: human K-Ras (G12D, aa 1-169); 6xHis tag + TEV cleavage site (N); made in house; host or cells: E. coli BL21(DE3) for K-Ras

[4] = target: T6, interaction between Raf-RBD and wildtype K-Ras (Homo sapiens, UniProt P01116); experiment: Time-resolved fluorescence energy transfer assay, Raf-RBD and wildtype K-Ras; assay type: biochemical
T6 construct: human K-Ras (wildtype, aa 1-169); 6xHis tag + TEV cleavage site (N); made in house; host or cells: E. coli BL21(DE3) for K-Ras

[5] = target: T7, Raf-RBD / K-Ras(G12D)·GppNHp (Homo sapiens, UniProt P01116, G12D); experiment: Biolayer interferometry, Raf-RBD binding of the K-Ras(G12D)·GppNHp adduct; settings: compared to unmodified K-Ras(G12D)·GppNHp
T7 construct: human K-Ras (G12D, aa 1-169); 6xHis tag + TEV cleavage site (N); made in house; host or cells: E. coli BL21(DE3) for K-Ras

K-Ras G12D [6] = target: T2, K-Ras G12D; experiment: Stability of the adduct between K-Ras(G12D) and the compound
[7] = tested on: KRAS G12D mutation cancer cell lines; experiment: Growth inhibition of KRAS G12D cancer cell lines; assay type: cell-based
Description: Cells were seeded into 96-well white flat bottom plates (1,000 cells/well) (Corning) and incubated overnight. Cells were treated with the indicated compounds in a nine-point threefold dilution series (100 μL final volume) and incubated for 72 h. Cell viability was assessed using a commercial CellTiter-Glo (CTG) luminescence-based assay (Promega). Briefly, the 96-well plates were equilibrated to room temperature before the addition of diluted CTG reagent […] (1:4 CTG reagent:PBS). Plates were placed on an orbital shaker for 30 min before recording luminescence using a Spark 20M (Tecan) plate reader.

K-Ras(G12S) = K-Ras(G12S) (Homo sapiens, UniProt P01116, G12S); experiment: Covalent modification of recombinant K-Ras(G12S) by whole-protein mass spectrometry; assay type: binding; design: human K-Ras (G12S, aa 1-169); 6xHis tag + TEV cleavage site (N, cleaved yes); made in house; host or cells: E. coli BL21(DE3); settings: 10 μM compound, 23° C.
In short: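 Recombinant K-Ras diluted to 400 nM or 1 μM in 20 mM HEPES pH 7.5, 150 mM NaCl, 1 mM MgCl2 and incubated with compound added from 100× DMSO stock. Modification extent measured by electrospray whole-protein mass spectrometry; kinetics used 1:1 mixing with 400 nM protein and injection time stamps for elapsed time.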

How did the “modification of K-Ras(wildtype)·GDP” value (wild type K-Ras) turn out when C#Cc1cccc2cccc(-c3ncc4c(N5C[C@H]6CC[C@@H](C5)N6C(=O)C5CC(=O)O5)nc(OCC56CCCN5CCC6)nc4c3F)c12 (mixture of isomers) [Compound 1] was run?
Its value is “no detectable modification”.

What about the “activity against GppNHp-bound K-Ras(G12D)” value (K-Ras G12D [1]) of the same molecule?
Its value is “also active against the GppNHp-bound K-Ras(G12D)”.

And the “time to full modification of K-Ras(G12D)·GDP” value (K-Ras G12D [1])?
Its value is “less than 15 minutes”.

And the “modification of K-Ras(G13D)·GDP” value (K-Ras(G13D))?
The value was 6.5±0.3%.

What about the “reactivity with K-Ras(G12E)·GDP” value (K-Ras G12E) of the same molecule?
Its value is “markedly reduced reactivity”.

What about the “ΔTm of K-Ras(G12D)·GDP on covalent modification” value (K-Ras G12D [2]; GDP state) of the same molecule?
Its value is “+10.3 °C”.

And the “ΔTm of K-Ras(G12D)·GppNHp on covalent modification” value (K-Ras G12D [2]; GppNHp state)?
Its value is “+2.5 °C”.

What about the “interaction between Raf-RBD and K-Ras(G12D)” value [3] of the same molecule?
Its value is “inhibited the interaction between Raf-RBD and K-Ras(G12D)”.

And the “interaction between Raf-RBD and wildtype K-Ras” value [4]?
Its value is “not wildtype K-Ras”.

And the “binding of the K-Ras(G12D)·GppNHp adduct to Raf-RBD” value [5]?
Its value is “substantially decreased binding to Raf-RBD”.

What about the “stability of the K-Ras(G12D) adduct over pH” value (K-Ras G12D [6]) of the same molecule?
The value was “stable over a range of pH (5.0-8.5)”.

And the “stability of the K-Ras(G12D) adduct with DTT” value (K-Ras G12D [6]; 1 mM DTT, 23° C.)?
Its value is “did not degrade in the presence of 1 mM DTT”.

What about the “growth of KRAS G12D cancer cell lines” value [7] of the same molecule?
Its value is “inhibited growth of KRAS^G12D cancer cell lines”.

What about the “covalent reaction with K-Ras(G12S)·GDP” value (K-Ras(G12S)) of the same molecule?
The value was “did not react with K-Ras(G12S)·GDP”.
